# Like-named read-outs stand apart in the source and are kept apart here.
# Tests used:
# [1] = w/w = g chemical/g solution; cited from earlier work
# [2] = Nucleator only experiments, in-line FBRM chord length distribution; assay type: physicochemical; conditions: FBRM at nucleator outlet, residence time 7.4 s and 10.3 s
# Text: In some embodiments, Focused Beam Reflectance Measurement (FBRM) or similar technique may be used to obtain characteristic size information. FBRM, in some embodiments, provides an ability to measure objects (e.g., crystals) in suspensions, e.g., at full process concentration, without the need for sample extraction and sample preparation. In some embodiments, FBRM method of measurement may be used which is based on a measurement of Chord Length Distribution that simultaneously tracks the rate and degree of change in particle count and mean chord length. As used herein, the term “chord length” refers to the length of a line segment passing across a portion of a projection of an object on a two-dimensional plane, and whose end points lie on the edge of the projection. The term “mean chord length” refers to the mean length of multiple chords, e.g., multiple randomly orientated chords. Methods for measuring mean particle count and mean chord length are well known in the art. See, […]. Particle Size Measurements: Fundamentals, Practice, Quality. […] Copyright 2009 Springer Science+Business Media B.V., and references cited therein.
# [3] = Integrated nucleator-tubular crystallizer experiment, crystal size by microscopic analysis; assay type: physicochemical
# Method: (§1) To perform the analysis, a drop of solution or 1 mg of crystals dispersed in a few drops of mineral oil was first imaged using a 5× objective.
# These experiments involved connecting the generator to a tubular crystallizer for crystal growth. This integrated nucleator-crystallizer experiment was conducted with a 49 mL tubular coiled crystallizer (Masterflex® L/S®, Chem-Durance® Bio tubing, ID=3.2 mm, Length=20 ft) using 1.54% acetaminophen solution. During the experiment, relatively small crystals generated in the nucleator were pumped into the tubular crystallizer at the same flow rate as the nuclei generator. The small crystals then grew in the crystallizer for a fixed residence time before the crystals were collected by vacuum filtration, as shown in FIG. 2. Two experiments at flow rates of 14.2 and 11.3 mL/min were conducted. The particle size distributions of the crystals were determined by microscopic analysis (Nikon Eclipse ME600).
# The nuclei generator can be integrated into crystallization processes in which the production of crystals of specific size distribution is desired (See, e.g., FIGS. 1B, 1C, 2, 12). In some embodiments, with the continuous generation of nuclei, the nucleation and growth events were decoupled. In this case, nucleation was triggered in the nucleator, while growth continued in the crystallizer. Multiple integrated nucleator—tubular crystallizer experiments were conducted that illustrate this process.
# [4] = Seeded Crystallization
# Method: as §1
# A continuous crystallization process with seeding was evaluated for comparison with an integrated nucleator-crystallizer device. A schematic diagram of the seeded crystallization experiment is depicted in FIG. 13. Seed crystals (nuclei) were obtained from antisolvent crystallization of glycine (to generate small crystals). Crystals obtained from antisolvent crystallization were sieved through a series of sieves with openings of 90, 63, and 45 μm. Seeds were collected from the 45 μm sieve.
# For the seeded crystallization experiment, the crystallizer was first filled with the feed solution. Once filled, the process was seeded by pumping (50 mL/min) a suspension of 0.05 g seed in 25 mL feed solution into the crystallizer. After seeding, the crystallization process proceeded with continuous input of clear feed solution at 50 mL/min. Glycine crystals were collected by vacuum filtration at the crystallizer outlet. Except for the seeding procedure, the other experimental conditions for the seeded crystallization experiment were kept identical to the integrated nucleator-crystallizer experiment of Example 4.
# Feed solution concentration: 24% (20% above saturation)
# Residence time in crystallizer (100 mL): 2 min
# Crystallizer holding temperature: 28° C.
# The data were analyzed with crystals collected between 4-5 residence times (RT) when the device was at steady state.
# To investigate the feasibility of the seeded experiment, a second experiment was conducted at lower crystallizer temperature (higher supersaturation that could potentially improve crystal growth rate).
# [5] = Method: as §1
# [6] = Integrated nucleator-crystallizer (Coflore crystallizer) experiment, crystal size; conditions: for d0.1 / d0.5 / d0.9: Integrated nucleator crystallization
smiles,measurement,setting,value
"CC(=O)Nc1ccc(O)cc1 [Acetaminophen, acetaminophen]",Saturation concentration at 25° C. (Cs),[1],1.48^16 % w/w
same,span (D (0.9)-D (0.1)) of chord length distribution,[2],≈ 20 μm
same,average growth rate inside the nucleator,[3]; flow rate 11.31 mL/min,1.47×10^−7 m/s
same,mean size of crystals leaving the nucleator,[3]; flow rate 11.31 mL/min,6.7 μm
same,mean size of crystals after tubular crystallizer,"[3]; flow rate 11.31 mL/min, after 4.3 min in the tubular crystallizer",13.5 μm
same,average growth rate inside the crystallizer,"[3]; flow rate 11.31 mL/min, tubular crystallizer",2.62×10^−7 m/s
same,mean size of small crystals produced,"[3]; integrated nucleator and tubular crystallizer, FIG. 9",12 μm
"NCC(=O)O [Glycine, glycine]",Saturation concentration at 25° C. (Cs),[1],20^15 % w/w
same,d0.1,[4]; Run 1 (Tcryst = 28° C.),6.3 μm
same,d0.5,[4]; Run 1 (Tcryst = 28° C.),14.6 μm
same,d0.9,[4]; Run 1 (Tcryst = 28° C.),44.6 μm
same,d0.1,[4]; Run 2 (Tcryst = 25° C.),7.4 μm
same,d0.5,[4]; Run 2 (Tcryst = 25° C.),28.8 μm
same,d0.9,[4]; Run 2 (Tcryst = 25° C.),90.3 μm
same,d0.1,[4]; Seed,2.4 μm
same,d0.5,[4]; Seed,10.3 μm
same,d0.9,[4]; Seed,50.8 μm
same,size below which 90% of the nuclei lie,"[5]; 21% glycine solution, 30 s residence time, nucleator only",less than 12.28 μm
same,coefficient of variation (CV) of nuclei size,"[5]; 21% glycine solution, three residence times",~1
same,size of nuclei obtained (mostly),"[5]; 21% glycine solution, three residence times (30 s, 2 min, 3.5 min)",less than 20 μm
same,mean size of small crystals generated with the nucleator,"[5]; glycine experiments, nucleator device",up to 14 μm
same,average size of nuclei upon leaving the nucleator,"[6]; 24% solution, 50 mL/min, approx. 10 s in nucleator",14 μm
same,average size of crystals from Coflore crystallizer,"[6]; 24% solution, 50 mL/min, approx. 2 minutes in crystallizer, 28° C.",48 μm
same,d0.1,[6]; Coflore,13.9 μm
same,d0.5,[6]; Coflore,34.1 μm
same,d0.9,[6]; Coflore,91.9 μm
same,d0.1,[6]; Nucleator,2.4 μm
same,d0.5,[6]; Nucleator,8.8 μm
same,d0.9,[6]; Nucleator,27.2 μm

# From patent US9233912B2, “Devices and methods for crystallization” (Massachusetts Institute of Technology, priority 2013, dated 2016)
